PMC6271988, “New Potentially Active Pyrazinamide Derivatives Synthesized Under Microwave Conditions” (Molecules, 2014)

What was measured:
[1] = test system: spectrum of fungi tested (8 fungal strains); assay: Antifungal evaluation, summary over the fungi tested; assay type: cell-based; details: fungi tested, less active than the standards; read-out: IC80 antifungal
Protocol: Antifungal evaluation was also accomplished with microdilution broth method. On the contrary, there was used RPMI 1640 broth with glutamine as medium and conditions were humid and dark atmosphere, pH 7.0 (adjusted with 0.165 M morpholinepropanesulfonic acid, MOPS) and 35 °C. 8 fungal strains were used (Candida albicans ATCC 44859, Candida tropicalis 156, Candida krusei E28, Candida glabrata 20/I, Trichosporon asahii 1188, Aspergillus fumigatus 231, Lichtheimia corymbifera 272, Trichophyton mentagrophytes 445) together with four antimycotic standards amphotericin B, voriconazole, nystatin and fluconazole.

[2] = test system: Staphylococcus epidermidis; assay: Antibacterial in vitro screening, microdilution broth method; assay type: cell-based; details: 80% inhibition of control
[3] = test system: PET in spinach chloroplasts; assay: Photosynthetic electron transport (PET) inhibition, DCPIP photoreduction; assay type: biochemical, Spinacia oleracea L.; details: DCPIP photoreduction
Protocol: The inhibition of photosynthetic electron transport (PET) in spinach chloroplasts was determined spectrophotometrically (Genesys 6, Thermo Scientific, Madison, WI, USA) using an artificial electron acceptor 2,6-dichlorophenol-indophenol (DCPIP). The rate of photosynthetic electron transport was monitored as a photoreduction of DCPIP. Chloroplasts were prepared from Spinacia oleracea L.. The measurements were carried out in phosphate buffer (0.02 mol/L, pH 7.2) containing sucrose (0.4 mol/L), MgCl2 (0.005 mol/L) and NaCl (0.015 mol/L). The chlorophyll concentration was 30 mg/L and the samples were irradiated (~100 W/m^2 with 10 cm distance) with a halogen lamp (250 W). […] The studied compound were dissolved in DMSO due to their limited water solubility. […] The efficiency of studied compounds was expressed as 50% inhibition concentration relative to the untreated control. The standard for these measurements was DCMU (Diurone®).

[4] = Lipophilicity HPLC determination (logk); assay type: physicochemical; details: HPLC capacity factor, C18, MeOH 70%/H2O 30%, 30 °C
[5] = test system: aromatic amino acids of photosynthetic proteins in spinach chloroplasts; assay: Fluorescence emission spectra of aromatic amino acids in chloroplast suspension; design: species or system Spinacia oleracea L.; details: c = 0, 6, 24 and 48 μmol/L; excitation 275 nm; chlorophyll 10 mg/L
Protocol: The emission fluorescence spectra of aromatic amino acids were recorded on the fluorescence spectrophotometer F-2000 (Hitachi, Tokyo, Japan). The samples of chloroplast suspensions with and without studied inhibitor were excited at wavelength of 275 nm, excitation slit 20 nm and emission slit 10 nm. The samples were kept in the dark for 2 min prior to the measurement. The phosphate buffer used for dilution of the chloroplast suspension was the same as described above. The compounds were added to chloroplast suspension in DMSO solution due to low aqueous solubility. The DMSO concentration in all samples was the same as in the control (10%). The chlorophyll concentration in chloroplast suspension was 10 mg/L.

CCCCCCNc1nccnc1C(N)=O [Compound 7, 3-(Hexylamino)pyrazine-2-carboxamide]
IC80 [1]: ≥ 250 µM | IC80 [2]: < 250 µM | IC50 [3]: 32.9 µM | logk [4]: 0.6860 | Quenching of aromatic amino acid fluorescence at 334 nm [5]: increased with increasing concentration
